Among the data in ChEMBL document CHEMBL1129255, “Identification of a retinoic acid receptor alpha subtype specific agonist” (J Med Chem, 1996) are Kd values, retold here.

The target of experiment [1] is T1, Retinoic acid receptor gamma (Homo sapiens, UniProt P13631).
T1 sequence (P13631 whole entry): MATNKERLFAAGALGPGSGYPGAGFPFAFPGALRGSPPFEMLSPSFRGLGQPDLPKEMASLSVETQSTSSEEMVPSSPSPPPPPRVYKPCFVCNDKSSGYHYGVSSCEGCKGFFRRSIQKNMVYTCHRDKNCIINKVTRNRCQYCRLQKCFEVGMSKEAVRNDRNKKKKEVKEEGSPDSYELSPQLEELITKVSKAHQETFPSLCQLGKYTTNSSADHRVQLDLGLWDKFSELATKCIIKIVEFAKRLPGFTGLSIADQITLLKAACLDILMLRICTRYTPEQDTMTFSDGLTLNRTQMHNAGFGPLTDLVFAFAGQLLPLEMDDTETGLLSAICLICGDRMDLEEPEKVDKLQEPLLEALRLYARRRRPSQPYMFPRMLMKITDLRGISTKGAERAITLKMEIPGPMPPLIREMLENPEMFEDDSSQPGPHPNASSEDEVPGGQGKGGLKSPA
Kind of experiment: Binding affinity for baculovirus-expressed Retinoic acid receptor RAR gamma.

Experiment [2] has as its target T2, Retinoic acid receptor alpha (Homo sapiens, UniProt P10276).
T2 sequence (P10276 whole entry): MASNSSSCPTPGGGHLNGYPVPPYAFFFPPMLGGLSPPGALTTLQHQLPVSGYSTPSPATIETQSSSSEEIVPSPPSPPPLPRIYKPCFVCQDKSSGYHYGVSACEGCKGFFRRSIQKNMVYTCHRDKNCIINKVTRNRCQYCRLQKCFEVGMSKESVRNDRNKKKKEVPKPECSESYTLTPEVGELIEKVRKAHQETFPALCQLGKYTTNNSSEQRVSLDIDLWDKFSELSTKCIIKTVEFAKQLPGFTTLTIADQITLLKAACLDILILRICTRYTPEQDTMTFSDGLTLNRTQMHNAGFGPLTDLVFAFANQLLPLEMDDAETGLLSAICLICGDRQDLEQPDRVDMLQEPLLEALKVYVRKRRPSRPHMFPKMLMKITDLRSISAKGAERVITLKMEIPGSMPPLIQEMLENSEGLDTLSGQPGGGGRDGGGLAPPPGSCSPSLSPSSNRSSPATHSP
Kind of experiment: Binding affinity for baculovirus-expressed Retinoic acid receptor RAR alpha.

Experiment [3] deals with T3, Retinoic acid receptor beta (Homo sapiens, UniProt P10826).
T3 sequence (P10826 whole entry): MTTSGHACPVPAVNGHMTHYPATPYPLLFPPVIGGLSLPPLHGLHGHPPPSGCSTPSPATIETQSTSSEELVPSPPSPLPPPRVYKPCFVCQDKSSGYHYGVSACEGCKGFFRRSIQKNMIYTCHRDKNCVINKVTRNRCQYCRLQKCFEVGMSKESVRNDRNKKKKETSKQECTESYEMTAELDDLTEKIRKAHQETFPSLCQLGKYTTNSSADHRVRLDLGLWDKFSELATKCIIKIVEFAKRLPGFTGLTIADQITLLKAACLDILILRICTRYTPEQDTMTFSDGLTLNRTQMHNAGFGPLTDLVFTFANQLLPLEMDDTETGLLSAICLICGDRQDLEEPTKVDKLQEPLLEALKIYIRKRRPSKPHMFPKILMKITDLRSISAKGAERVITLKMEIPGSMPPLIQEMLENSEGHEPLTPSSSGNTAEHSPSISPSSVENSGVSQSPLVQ
Kind of experiment: Binding affinity for baculovirus-expressed Retinoic acid receptor RAR beta.

Where only a bound is given, the exact number is not on record here.

The Kd is the concentration at which binding is half-saturated. Higher therefore signals weaker binding. Take `CC1(C)CCC(C)(C)c2c1cc(C(=O)Nc1ccc(C(=O)O)c(F)c1)c(O)c2Br`: the Kd in experiment [1] was more than 30 µM; in experiment [2], 0.0044 µM; in experiment [3], 3.04 µM.

For `CC1(C)CCC(C)(C)c2c1cc(C(=O)Nc1cc(F)c(C(=O)O)c(F)c1)c(O)c2Br`, the Kd in experiment [1] is more than 30 µM; in experiment [2], 0.0084 µM; in experiment [3], 17.4 µM.
